Our source for the AC1.4 values is patent publication US11780826B2 (Amgen Inc., priority 2017, dated 2023).

This assay relates to Bovine cardiac myofibrils. Nature of the assay: In vitro model of dose-dependent myofibril ATPase modulation (AC1.4, pyruvate kinase/lactate dehydrogenase-coupled ATPase assay at pCa25). The settings on record: concentration at which ATPase activity was 1.4-fold higher than the bottom of the dose curve, mean of a minimum of two independent tests. It is filed as biochemical. A digest of the protocol:
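We measure calcium-buffered ATPase activity of detergent-skinned bovine cardiac myofibrils at pH 6.80 and 22° C with 1 mM ATP, using a PK/LDH-coupled NADH readout at 340 nm. Values come from four-parameter dose-response fits, averaged over at least two independent runs.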
The compound `CC(C)[C@@H](NC(=O)[C@H]1CCCN1C(=O)c1cccc(S(=O)(=O)N2CC(C#N)C2)c1)c1ccc(C(F)(F)F)cc1F` [Example 10, 1-(3-((3-cyano-1-azetidinyl)sulfonyl)benzoyl)-N-((1R)-1-(2-fluoro-4-(trifluoromethyl)phenyl)-2-methylpropyl)-D-prolinamide] displayed an AC1.4 of 0.02115 µM.
On to `CCS(=O)(=O)c1cccc(C(=O)N2[C@@H](C(=O)N[C@@H](c3ccc(C(F)(F)F)cc3)C3COC3)C[C@H]3C[C@H]32)c1` [Example 275, (1R,3R,5R)-2-(3-(ethylsulfonyl)benzoyl)-N-((R)-3-oxetanyl(4-(trifluoromethyl)phenyl)methyl)-2-azabicyclo[3.1.0]hexane-3-carboxamide], for which the AC1.4 worked out at 0.6922 µM.
Consider `CCC1(O)CN(S(=O)(=O)N2CCC[C@H](C(=O)N3CCC[C@@H]3C(=O)NCc3ccc(C(F)(F)F)cc3F)C2)C1` [Example 509, 1-(((3S)-1-((3-ethyl-3-hydroxy-1-azetidinyl)sulfonyl)-3-piperidinyl)carbonyl)-N-(2-fluoro-4-(trifluoromethyl)benzyl)-D-prolinamide], for which the AC1.4 came to 2.3995 µM.
The value for `N#CC1CN(S(=O)(=O)N2CCC[C@H](C(=O)N3CCC[C@H]3C(=O)NCc3cc(F)cc(F)c3)C2)C1` [Example 694, 1-(((3S)-1-((3-cyano-1-azetidinyl)sulfonyl)-3-piperidinyl)carbonyl)-N-(3,5-difluorobenzyl)-L-prolinamide] was 5.48 µM; that for `Cc1cc(C(=O)N2[C@@H](C(=O)N[C@@H](c3ccc(C(F)(F)F)cc3F)C3COC3)C[C@H]3C[C@H]32)cc(S(C)(=O)=O)c1` [Example 323, (1R,3R,5R)-N-((R)-(2-fluoro-4-(trifluoromethyl)phenyl)(3-oxetanyl)methyl)-2-(3-methyl-5-(methylsulfonyl)benzoyl)-2-azabicyclo[3.1.0]hexane-3-carboxamide] was 0.8707 µM.
In turn, `COC(=O)C1CC(S(=O)(=O)N2CCC[C@H](C(=O)N3CCC[C@@H]3C(=O)NCc3ccc(C(F)(F)F)cc3)C2)C1` (stereo partly drawn) [Example 518, methyl3-(((S)-3-((R)-2-((4-(trifluoromethyl)benzyl)carbamoyl)pyrrolidine-1-carbonyl)piperidin-1-yl)sulfonyl)cyclobutanecarboxylate] displayed an AC1.4 of 2.457 µM.
For `N#CC1CN(S(=O)(=O)N2CCC[C@H](C(=O)N3CCC[C@@H]3C(=O)NCc3cccc(C(F)(F)F)c3F)C2)C1` [Example 335, 1-(((3S)-1-((3-cyano-1-azetidinyl)sulfonyl)-3-piperidinyl)carbonyl)-N-(2-fluoro-3-(trifluoromethyl)benzyl)-D-prolinamide] the value was 0.9362 µM; for `Cc1cc(C(=O)N2[C@@H](C(=O)N[C@@H](c3cc(F)c(Cl)cc3F)C3CC3)C[C@H]3C[C@H]32)ccn1` [Example 736, (1R,3R,5R)-N-((R)-(4-chloro-2,5-difluorophenyl)(cyclopropyl)methyl)-2-((2-methyl-4-pyridinyl)carbonyl)-2-azabicyclo[3.1.0]hexane-3-carboxamide], 7.041 µM; for `COc1ccc([C@H](NC(=O)[C@H]2CCCN2C(=O)[C@H]2CCCN(S(=O)(=O)N3CC(C#N)C3)C2)C(F)(F)F)cc1F` [Example 776, 1-(((3S)-1-((3-cyano-1-azetidinyl)sulfonyl)-3-piperidinyl)carbonyl)-N-((1S)-2,2,2-trifluoro-1-(3-fluoro-4-methoxyphenyl)ethyl)-D-prolinamide], 8.3695 µM.
For `CS(=O)(=O)N1CC(F)(c2cccc(C(=O)N3CCC[C@@H]3C(=O)N[C@@H](c3ccc(C(F)(F)F)cc3F)C3CC3)c2)C1` [Example 286, N-((R)-cyclopropyl(2-fluoro-4-(trifluoromethyl)phenyl)methyl)-1-(3-(3-fluoro-1-(methylsulfonyl)-3-azetidinyl)benzoyl)-D-prolinamide] the value was 0.7437 µM.
